The target in assay [1] is T1, Progesterone receptor (Homo sapiens, UniProt P06401).
T1 sequence (P06401 whole entry): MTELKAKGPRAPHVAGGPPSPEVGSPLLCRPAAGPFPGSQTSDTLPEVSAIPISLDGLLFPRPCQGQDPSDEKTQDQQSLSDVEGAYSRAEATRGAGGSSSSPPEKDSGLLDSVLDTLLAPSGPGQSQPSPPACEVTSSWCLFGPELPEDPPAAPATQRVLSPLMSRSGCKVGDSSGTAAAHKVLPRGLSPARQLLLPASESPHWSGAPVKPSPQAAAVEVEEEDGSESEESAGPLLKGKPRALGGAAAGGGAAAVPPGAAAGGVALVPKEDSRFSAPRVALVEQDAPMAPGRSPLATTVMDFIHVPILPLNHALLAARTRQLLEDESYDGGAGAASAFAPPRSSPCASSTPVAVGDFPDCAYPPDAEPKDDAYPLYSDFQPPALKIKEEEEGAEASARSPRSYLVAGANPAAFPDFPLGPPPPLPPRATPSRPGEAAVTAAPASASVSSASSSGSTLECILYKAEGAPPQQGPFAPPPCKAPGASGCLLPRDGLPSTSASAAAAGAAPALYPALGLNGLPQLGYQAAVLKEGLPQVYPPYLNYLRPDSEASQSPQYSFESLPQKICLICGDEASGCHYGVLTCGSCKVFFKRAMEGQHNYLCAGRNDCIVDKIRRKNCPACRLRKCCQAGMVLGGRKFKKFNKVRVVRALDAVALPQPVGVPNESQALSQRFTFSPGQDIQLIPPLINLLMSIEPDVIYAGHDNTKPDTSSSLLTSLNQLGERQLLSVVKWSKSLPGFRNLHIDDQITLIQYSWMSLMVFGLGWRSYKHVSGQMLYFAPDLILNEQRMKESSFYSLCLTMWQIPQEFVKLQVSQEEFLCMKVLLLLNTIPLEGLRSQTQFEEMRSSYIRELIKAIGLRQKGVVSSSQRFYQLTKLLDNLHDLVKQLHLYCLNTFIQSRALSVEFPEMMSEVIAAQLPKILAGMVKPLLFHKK
Briefly: Binding affinity at PR by fluorescence binding assay.

The target of assay [2] is T1, Progesterone receptor. Briefly: Antagonist activity against PR beta-mediated transactivation of MMTV luciferase reporter gene in BacMam transduced progesterone-stimulated CV1 cells. The class given is functional, cell-based, CV-1. On the technique in general: In a reporter assay the amount or activity of a reporter protein is the signal.

Broadly, the Ki is the dissociation constant of the complex between target and ligand, obtained from inhibition or displacement. A lower Ki goes with a stronger hold on the target. Molecule `N#Cc1ccc(C2=NN(S(=O)(=O)c3ccc(Br)s3)CCCC2)cc1` had a Ki in assay [1] of 63.1 nM.
As a reminder, the IC50 is the concentration that gives 50% inhibition. Read a high IC50 as a need for much substance. Molecule `O=S(=O)(c1ccc(Cl)cc1)N1CCCCC(c2cccc(F)c2)=N1` had an IC50 in assay [2] of 501 nM. Further, in assay [1], affinity was put at a Ki of 794 nM.
In the same order, the values of `Cc1c(Cl)cccc1S(=O)(=O)N1CCCCC(c2cccc(Cl)c2)=N1` are 2000 nM and 316 nM.
Turning to `N#Cc1ccc(C2=NN(S(=O)(=O)c3ccccc3F)CCCC2)cc1`, in assay [2], half-maximal inhibition (IC50) was put at 398 nM. In assay [1], this molecule had a Ki of 1000 nM.
In the same order, the values of `O=[N+]([O-])c1ccc(C2=NN(S(=O)(=O)c3ccc(OC(F)(F)F)cc3)CCCC2)cc1` are 158 nM and 50.1 nM.
On the same counts, the results for `O=S(=O)(c1cccc(Cl)c1)N1CCCCC(c2ccc(Cl)cc2)=N1` are 1260 nM and 631 nM.
In assay [2], `O=S(=O)(c1ccc(Br)s1)N1CCCCC(c2cccc(Br)c2)=N1` showed an IC50 of 251 nM. Also, in assay [1], the Ki was 63.1 nM.
In the same order, the values of `O=S(=O)(c1ccc(Cl)cc1Cl)N1CCCCC(c2ccc(Cl)c(Cl)c2)=N1` are 200 nM and 50.1 nM.
In assay [1], `O=S(=O)(c1ccc(Cl)s1)N1CCCCC(c2ccc(Cl)c(Cl)c2)=N1` had a Ki of 39.8 nM.
Take `O=S(=O)(c1ccc(Br)s1)N1CCCCC(c2ccc(Cl)c(Cl)c2)=N1`: in assay [2], the IC50 is 316 nM. Also, the Ki in assay [1] is 25.1 nM.
In assay [2], `O=S(=O)(c1ccc(Cl)s1)N1CCCCC(c2ccccc2Cl)=N1` showed a 50% inhibitory concentration (IC50) of 631 nM. In addition, the affinity in assay [1], expressed as Ki, was 200 nM.

For the origin of these results see ChEMBL document CHEMBL1137424, “Array synthesis of progesterone receptor antagonists: 3-aryl-1,2-diazepines” (Bioorg Med Chem Lett, 2006).
